Reference: patent US10905123B2, “Herbicidal compounds” (Syngenta Participations AG, priority 2015, dated 2021)

Experiments:
Assay type in all cases: in vivo
Conditions in all cases: Rate 1000 g/ha; evaluated after 13 days
Zea mays (ZEAMX) [1] = test: B1a pre-emergence herbicidal activity
Method: (§1) Seeds of a variety of test species were sown in standard soil in pots: Amaranthus retroflexus (AMARE), Setaria faberi (SETFA), Zea mays (ZEAMX), Abutilon threophrasti (ABUTH), Echinochloa crus-galli (ECHCG), Lolium perenne (LOLPE). After cultivation for one day (pre-emergence) under controlled conditions in a glasshouse (at 24/16° C., day/night; 14 hours light; 65% humidity), the plants were sprayed with an aqueous spray solution derived from the formulation of the technical active ingredient in acetone/water (50:50) solution containing 0.5% Tween 20 (polyoxyethelyene sorbitan monolaurate, CAS RN 9005-64-5). The test plants were then grown in a glasshouse under controlled conditions (at 24/16° C., day/night; 14 hours light; 65% humidity) and watered twice daily. After 13 days, the test was evaluated (5=total damage to plant; 0=no damage to plant). Results are shown below in Table 4

Setaria faberi (SETFA) [2] = test: B1a pre-emergence herbicidal activity
Method: as §1

[3] = system: Echinochloa crus-galli (ECHCG); test: B1a pre-emergence herbicidal activity
Method: as §1

[4] = system: Abutilon threophrasti (ABUTH); test: B1a pre-emergence herbicidal activity
Method: as §1

Lolium perenne (LOLPE) [5] = test: B1a pre-emergence herbicidal activity
Method: as §1

[6] = system: Amaranthus retroflexus (AMARE); test: B1a pre-emergence herbicidal activity
Method: as §1

Zea mays (ZEAMX) [7] = test: B2a post-emergence herbicidal activity
Method: (§2) Seeds of a variety of test species were sown in standard soil in pots: Amaranthus retroflexus (AMARE), Setaria faberi (SETFA), Zea mays (ZEAMX), Abutilon threophrasti (ABUTH), Echinochloa crus-galli (ECHCG), Lolium perenne (LOLPE). After 8 days cultivation (post-emergence) under controlled conditions in a glasshouse (at 24/16° C., day/night; 14 hours light; 65% humidity), the plants were sprayed with an aqueous spray solution derived from the formulation of the technical active ingredient in acetone/I water (50:50) solution containing 0.5% Tween 20 (polyoxyethelyene sorbitan monolaurate, CAS RN 9005-64-5). The test plants were then grown in a glasshouse under controlled conditions (at 24/16° C., day/night; 14 hours light; 65% humidity) and watered twice daily. After 13 days, the test was evaluated (5=total damage to plant; 0=no damage to plant).

Setaria faberi (SETFA) [8] = test: B2a post-emergence herbicidal activity
Method: as §2

[9] = system: Echinochloa crus-galli (ECHCG); test: B2a post-emergence herbicidal activity
Method: as §2

[10] = system: Abutilon threophrasti (ABUTH); test: B2a post-emergence herbicidal activity
Method: as §2

Lolium perenne (LOLPE) [11] = test: B2a post-emergence herbicidal activity
Method: as §2

[12] = system: Amaranthus retroflexus (AMARE); test: B2a post-emergence herbicidal activity
Method: as §2

Row | Structure (SMILES) | Control of ZEAMX after pre-emergence application (damage score 0-5) (Zea mays (ZEAMX) [1]) | Control of SETFA after pre-emergence application (damage score 0-5) (Setaria faberi (SETFA) [2]) | Control of ECHCG after pre-emergence application (damage score 0-5) [3] | Control of ABUTH after pre-emergence application (damage score 0-5) [4] | Control of LOLPE after pre-emergence application (damage score 0-5) (Lolium perenne (LOLPE) [5]) | Control of AMARE after pre-emergence application (damage score 0-5) [6] | Control of ZEAMX after post-emergence application (damage score 0-5) (Zea mays (ZEAMX) [7]) | Control of SETFA after post-emergence application (damage score 0-5) (Setaria faberi (SETFA) [8]) | Control of ECHCG after post-emergence application (damage score 0-5) [9] | Control of ABUTH after post-emergence application (damage score 0-5) [10] | Control of LOLPE after post-emergence application (damage score 0-5) (Lolium perenne (LOLPE) [11]) | Control of AMARE after post-emergence application (damage score 0-5) [12]
1 | CC(C)OC(=O)Nc1cc(-c2cncnc2)nn1C(F)F [Compound A58, isopropyl N-[2-(difluoromethyl)-5-pyrimidin-5-yl-pyrazol-3-yl]carbamate] | 0 | 2 | 1 | 0 | 0 | 0 | 1 | 3 | 1 | 0 | 1 | 0
2 | CC(C)OC(=O)N(C)c1cc(-c2cncnc2)nn1C(F)F [Compound A59, isopropyl N-[2-(difluoromethyl)-5-pyrimidin-5-yl-pyrazol-3-yl]-N-methyl-carbamate] | 2 | 3 | 2 | 0 | 0 | 0 | 2 | 3 | 1 | 0 | 0 | 0
3 | CN(C(=O)OC(C)(C)C)c1cn(-c2cccnc2)nc1Cl [Compound A60, tert-butyl N-[3-chloro-1-(3-pyridyl)pyrazol-4-yl]-N-methyl-carbamate] | 2 | 4 | 2 | 0 | 0 | 1 | 3 | 4 | 4 | 2 | 2 | 3
